# According to patent US10500166B2, “Methods for the treatment of erectile dysfunction using fispemifene” (QUATRX PHARMACEUTICALS, priority 2007, dated 2019):
# Columns and labels:
# Type in all cases: in vivo, human
# [1] = system: SHBG (sex hormone-binding globulin); assay: Example 3 study in hypogonadal men: serum sex hormone binding globulin (ITT); conditions: Baseline (Visit 2)
# Protocol: (§1) A randomized, double-blind, placebo controlled, parallel-group study of once-daily doses of fispemifene (100, 200, and 300 mg/day) given for 4 weeks was conducted in a population of hypogonadal men. Subjects were required to meet all of the following inclusion criteria at screening and prior to randomization to be eligible for the study:
# (§2) There were 77 subjects total. The number of subjects randomized to the 100 mg fispemifene, 200 mg fispemifene, 300 mg fispemifene, and placebo arms were 21, 21, 19, and 16, respectively.
# (§3) Subjects were randomly assigned to one of four treatment groups in a 1:1:1:1 ratio: • Treatment A (100 mg): fispemifene 100 mg+placebo+placebo; • Treatment B (200 mg): fispemifene 100 mg+fispemifene 100 mg+placebo; • Treatment C (300 mg): fispemifene 100 mg+fispemifene 100 mg+fispemifene 100 mg; and • Treatment D (Placebo): placebo+placebo+placebo.
# (§4) Subjects took one dose (three capsules) of study medication once a day at home for 4 weeks. Capsules were to be taken in the morning immediately after breakfast, with the exception of the morning of the Week 4 visit. Capsules were not to be taken on the morning of the Week 4 visit because trough plasma levels of fispemifene were determined by a blood sample taken at this visit. Each subject was randomly assigned to treatment with one of the 3 different dose regimens of fispemifene or placebo vehicle. Each subject received a 4 week supply of study drug.
# (§5) Blood samples were taken from the subjects within 1 week prior to dosing with study drug to establish baseline values; after 2 and 4 weeks of randomization; and 2 weeks after the last dose of study drug. Serum was prepared from those samples and used to determine the mean % change from baseline in total testosterone, free testosterone, SHBG (sex hormone-binding globulin), DHT (dihydrotestosterone), E2 (estradiol), LH (luteinizing hormone), FSH (follicle stimulating hormone), and inhibin B.
# (§6) 3. Percent change from baseline in SHBG, DHT, E2, LH, FSH, inhibin B, and testosterone/E2 ratio at Weeks 2, 4, and 6.
# [2] = system: DHT (dihydrotestosterone); assay: Example 3 study in hypogonadal men: serum dihydrotestosterone (ITT); conditions: for Dihydrotestosterone, Max / Dihydrotestosterone, Mean ± SD / Dihydrotestosterone, Median / Dihydrotestosterone, Min: Baseline (Visit 2);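 for Dihydrotestosterone, Max: serum DHT concentration in pg/mL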;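 for Dihydrotestosterone, Mean ± SD: serum DHT concentration in pg/mL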;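 for Dihydrotestosterone, Median: serum DHT concentration in pg/mL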;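 for Dihydrotestosterone, Min: serum DHT concentration in pg/mL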
# Protocol: as §1, §2, §3, §4, §5, §6
# [3] = system: FSH (follicle stimulating hormone); assay: Example 3 study in hypogonadal men: serum FSH (ITT); conditions: for FSH % Change from Baseline to Week 2, Max / FSH % Change from Baseline to Week 2, Mean ± SD / FSH % Change from Baseline to Week 2, Median / FSH % Change from Baseline to Week 2, Min / FSH % Change from Baseline to Week 4, Max / FSH % Change from Baseline to Week 4, Mean ± SD / FSH % Change from Baseline to Week 4, Median / FSH % Change from Baseline to Week 4, Min / FSH % Change from Baseline to Week 6, Max / FSH % Change from Baseline to Week 6, Mean ± SD / FSH % Change from Baseline to Week 6, Median / FSH % Change from Baseline to Week 6, Min: (Week minus Baseline) divided by Baseline, LOCF; for FSH % Change from Baseline to Week 2, Max / FSH % Change from Baseline to Week 2, Mean ± SD / FSH % Change from Baseline to Week 2, Median / FSH % Change from Baseline to Week 2, Min / FSH % Change from Baseline to Week 4, Max / FSH % Change from Baseline to Week 4, Mean ± SD / FSH % Change from Baseline to Week 4, Median / FSH % Change from Baseline to Week 4, Min / FSH % Change from Baseline to Week 6, Max / FSH % Change from Baseline to Week 6, Mean ± SD / FSH % Change from Baseline to Week 6, Median / FSH % Change from Baseline to Week 6, Min / FSH Actual Value at Baseline (Visit 2), Max / FSH Actual Value at Baseline (Visit 2), Mean ± SD / FSH Actual Value at Baseline (Visit 2), Median / FSH Actual Value at Baseline (Visit 2), Min: ITT
# Protocol: as §1, §2, §3, §4, §5, §6
# [4] = 100 mg/day, to Week 6 (2 weeks after discontinuation)
# [5] = 200 mg/day, to Week 6 (2 weeks after discontinuation)
# [6] = 300 mg/day, to Week 6 (2 weeks after discontinuation)
structure (smiles),measurement,setting,value
"OCCOCCOc1ccc(/C(=C(/CCCl)c2ccccc2)c2ccccc2)cc1 [Fispemifene, (Z)-2-{2-[4-(4-Chloro-1,2-diphenylbut-1-enyl)phenoxy]ethoxy}ethanol]","Sex Hormone Binding Globulin, Max",[1]; 100 mg/day,35.0 nmol/L
same,"Sex Hormone Binding Globulin, Mean ± SD",[1]; 100 mg/day,18.4 ± 6.96 nmol/L
same,"Sex Hormone Binding Globulin, Median",[1]; 100 mg/day,17.0 nmol/L
same,"Sex Hormone Binding Globulin, Min",[1]; 100 mg/day,8.5 nmol/L
same,"Sex Hormone Binding Globulin, Max",[1]; 200 mg/day,51.0 nmol/L
same,"Sex Hormone Binding Globulin, Mean ± SD",[1]; 200 mg/day,19.5 ± 11.12 nmol/L
same,"Sex Hormone Binding Globulin, Median",[1]; 200 mg/day,18.0 nmol/L
same,"Sex Hormone Binding Globulin, Min",[1]; 200 mg/day,3.7 nmol/L
same,"Sex Hormone Binding Globulin, Max",[1]; 300 mg/day,48.0 nmol/L
same,"Sex Hormone Binding Globulin, Mean ± SD",[1]; 300 mg/day,20.0 ± 10.28 nmol/L
same,"Sex Hormone Binding Globulin, Median",[1]; 300 mg/day,19.0 nmol/L
same,"Sex Hormone Binding Globulin, Min",[1]; 300 mg/day,5.6 nmol/L
same,"Dihydrotestosterone, Max",[2]; 100 mg/day,385.0 pg/mL
same,"Dihydrotestosterone, Mean ± SD",[2]; 100 mg/day,177.5 ± 88.58 pg/mL
same,"Dihydrotestosterone, Median",[2]; 100 mg/day,180.0 pg/mL
same,"Dihydrotestosterone, Min",[2]; 100 mg/day,50.0 pg/mL
same,"Dihydrotestosterone, % Change from Baseline, Max","[2]; 100 mg/day, to Week 2",109%
same,"Dihydrotestosterone, % Change from Baseline, Median","[2]; 100 mg/day, to Week 2",42%
same,"Dihydrotestosterone, % Change from Baseline, Min","[2]; 100 mg/day, to Week 2",0%
same,"Dihydrotestosterone, % Change from Baseline, Max","[2]; 100 mg/day, to Week 4",98%
same,"Dihydrotestosterone, % Change from Baseline, Median","[2]; 100 mg/day, to Week 4",33%
same,"Dihydrotestosterone, % Change from Baseline, Max",[2]; [4],64%
same,"Dihydrotestosterone, % Change from Baseline, Median",[2]; [4],19%
same,"Dihydrotestosterone, Max",[2]; 200 mg/day,398.0 pg/mL
same,"Dihydrotestosterone, Mean ± SD",[2]; 200 mg/day,185.2 ± 95.37 pg/mL
same,"Dihydrotestosterone, Median",[2]; 200 mg/day,168.0 pg/mL
same,"Dihydrotestosterone, Min",[2]; 200 mg/day,67.0 pg/mL
same,"Dihydrotestosterone, % Change from Baseline, Max","[2]; 200 mg/day, to Week 2",128%
same,"Dihydrotestosterone, % Change from Baseline, Median","[2]; 200 mg/day, to Week 2",50%
same,"Dihydrotestosterone, % Change from Baseline, Max","[2]; 200 mg/day, to Week 4",162%
same,"Dihydrotestosterone, % Change from Baseline, Median","[2]; 200 mg/day, to Week 4",61%
same,"Dihydrotestosterone, % Change from Baseline, Max",[2]; [5],78%
same,"Dihydrotestosterone, % Change from Baseline, Median",[2]; [5],11%
same,"Dihydrotestosterone, Max",[2]; 300 mg/day,294.0 pg/mL
same,"Dihydrotestosterone, Mean ± SD",[2]; 300 mg/day,171.6 ± 76.42 pg/mL
same,"Dihydrotestosterone, Median",[2]; 300 mg/day,179.0 pg/mL
same,"Dihydrotestosterone, Min",[2]; 300 mg/day,50.0 pg/mL
same,"Dihydrotestosterone, % Change from Baseline, Max","[2]; 300 mg/day, to Week 2",162%
same,"Dihydrotestosterone, % Change from Baseline, Median","[2]; 300 mg/day, to Week 2",65%
same,"Dihydrotestosterone, % Change from Baseline, Min","[2]; 300 mg/day, to Week 2",0%
same,"Dihydrotestosterone, % Change from Baseline, Max","[2]; 300 mg/day, to Week 4",163%
same,"Dihydrotestosterone, % Change from Baseline, Median","[2]; 300 mg/day, to Week 4",73%
same,"Dihydrotestosterone, % Change from Baseline, Min","[2]; 300 mg/day, to Week 4",0%
same,"Dihydrotestosterone, % Change from Baseline, Max",[2]; [6],98%
same,"Dihydrotestosterone, % Change from Baseline, Median",[2]; [6],19%
same,"FSH % Change from Baseline to Week 2, Max",[3]; 100 mg,0.76
same,"FSH % Change from Baseline to Week 2, Mean ± SD",[3]; 100 mg,0.29 ± 0.222
same,"FSH % Change from Baseline to Week 2, Median",[3]; 100 mg,0.27
same,"FSH % Change from Baseline to Week 2, Min",[3]; 100 mg,−0.13
same,"FSH % Change from Baseline to Week 4, Max",[3]; 100 mg,1.12
same,"FSH % Change from Baseline to Week 4, Mean ± SD",[3]; 100 mg,0.28 ± 0.296
same,"FSH % Change from Baseline to Week 4, Median",[3]; 100 mg,0.24
same,"FSH % Change from Baseline to Week 4, Min",[3]; 100 mg,−0.09
same,"FSH % Change from Baseline to Week 6, Max",[3]; 100 mg,0.610
same,"FSH % Change from Baseline to Week 6, Mean ± SD",[3]; 100 mg,0.043 ± 0.2302
same,"FSH % Change from Baseline to Week 6, Median",[3]; 100 mg,0.000
same,"FSH % Change from Baseline to Week 6, Min",[3]; 100 mg,−0.345
same,"FSH Actual Value at Baseline (Visit 2), Max",[3]; 100 mg,14.90 IU/L
same,"FSH Actual Value at Baseline (Visit 2), Mean ± SD",[3]; 100 mg,649 ± 3.738 IU/L
same,"FSH Actual Value at Baseline (Visit 2), Median",[3]; 100 mg,5.00 IU/L
same,"FSH % Change from Baseline to Week 2, Max",[3]; 200 mg,0.60
same,"FSH % Change from Baseline to Week 2, Mean ± SD",[3]; 200 mg,0.33 ± 0.147
same,"FSH % Change from Baseline to Week 2, Median",[3]; 200 mg,0.28
same,"FSH % Change from Baseline to Week 2, Min",[3]; 200 mg,0.03
same,"FSH % Change from Baseline to Week 4, Max",[3]; 200 mg,0.58
same,"FSH % Change from Baseline to Week 4, Mean ± SD",[3]; 200 mg,0.32 ± 0.157
same,"FSH % Change from Baseline to Week 4, Median",[3]; 200 mg,0.33
same,"FSH % Change from Baseline to Week 4, Min",[3]; 200 mg,0.02
same,"FSH % Change from Baseline to Week 6, Max",[3]; 200 mg,0.442
same,"FSH % Change from Baseline to Week 6, Mean ± SD",[3]; 200 mg,0.050 ± 0.1657
same,"FSH % Change from Baseline to Week 6, Median",[3]; 200 mg,0.022
same,"FSH % Change from Baseline to Week 6, Min",[3]; 200 mg,−0.167
same,"FSH Actual Value at Baseline (Visit 2), Max",[3]; 200 mg,14.20 IU/L
same,"FSH Actual Value at Baseline (Visit 2), Mean ± SD",[3]; 200 mg,5.91 ± 3.054 IU/L
same,"FSH Actual Value at Baseline (Visit 2), Median",[3]; 200 mg,5.20 IU/L
same,"FSH Actual Value at Baseline (Visit 2), Min",[3]; 200 mg,2.40 IU/L
same,"FSH % Change from Baseline to Week 2, Max",[3]; 300 mg,0.78
same,"FSH % Change from Baseline to Week 2, Mean ± SD",[3]; 300 mg,0.36 ± 0.233
same,"FSH % Change from Baseline to Week 2, Median",[3]; 300 mg,0.31
same,"FSH % Change from Baseline to Week 2, Min",[3]; 300 mg,−0.21
same,"FSH % Change from Baseline to Week 4, Max",[3]; 300 mg,0.60
same,"FSH % Change from Baseline to Week 4, Mean ± SD",[3]; 300 mg,0.29 ± 0.206
same,"FSH % Change from Baseline to Week 4, Median",[3]; 300 mg,0.28
same,"FSH % Change from Baseline to Week 4, Min",[3]; 300 mg,−0.24
same,"FSH % Change from Baseline to Week 6, Max",[3]; 300 mg,0.395
same,"FSH % Change from Baseline to Week 6, Mean ± SD",[3]; 300 mg,−0.010 ± 0.1786
same,"FSH % Change from Baseline to Week 6, Median",[3]; 300 mg,−0.043
same,"FSH % Change from Baseline to Week 6, Min",[3]; 300 mg,−0.255
same,"FSH Actual Value at Baseline (Visit 2), Max",[3]; 300 mg,12.30 IU/L
same,"FSH Actual Value at Baseline (Visit 2), Mean ± SD",[3]; 300 mg,5.08 ± 2.931 IU/L
same,"FSH Actual Value at Baseline (Visit 2), Median",[3]; 300 mg,4.10 IU/L
same,"FSH Actual Value at Baseline (Visit 2), Min",[3]; 300 mg,1.80 IU/L
same,effect on serum FSH levels,"[3]; hypogonadal men, 100-300 mg/day for 4 weeks",increased
